Laboratory results reported in US8597646B2, “Methods and compositons featuring TGF-beta antagonists for the treatment of marfan syndrome and associated disorders” (The Johns Hopkins University, priority 2005, dated 2013).
Entries after “also recorded” stand apart in the source; their conditions may differ.

Columns and labels:
Format in all cases: in vivo, mouse
[1] = system: Fbn1C1039G/+ mice; test: Prenatal treatment with losartan and propranolol, aorta of Fbn1C1039G/+ mice; details: prenatal start
Text: Treatment of the mothers continued throughout lactation and was maintained in the pups after weaning. Mice were killed at 10 months of age. […] The average aortic wall thickness for untreated wild-type animals was smaller than that in placebo-treated Fbn1C1039G/+ mice (P<0.0001) but was indistinguishable from that in losartan-treated Fbn1C1039G/+ mice (P=0.24, FIG. 20E).

[2] = system: C1039G/+ mice; test: Aortic wall histology (elastic matrix architecture) in treated C1039G/+ mice; details: 4 months of treatment
[3] = system: C1039G/+ mice; test: Aortic root growth by echocardiography in C1039G/+ mice, 4 months of treatment
Method: Markers of TGFβ antagonism have included reduced plasma levels of free TGFβ, reduced intracellular initiation of the TGFβ signaling cascade, and reduced tissue expression of TGFβ-responsive genes. […] Three independent measurements of the aortic root were made from the long axis echo view in systole at each of 3 time points (baseline, 2 and 4 months of treatment; FIG. 8A). All analyses were performed blinded to genotype and treatment arm. […] This represents the first therapeutic strategy for MFS that derives from interrogation of disease pathogenesis and the first possibility for primary prevention of disease manifestations.

[4] = system: Fbn1C1039G/+ mice; test: Postnatal treatment with losartan and propranolol, aorta of Fbn1C1039G/+ mice
Text: However, before treatment, the aortic diameter in Fbn1C1039G/+ mice was always greater than in untreated wild-type mice (1.59±0.11 mm; P<0.002).
Three independent aortic root measurements were obtained for each mouse every 2 months during the 6 months of treatment. Mice were killed at 8 months of age. […] The aortic root growth rate over this period was less in the wild-type mice than in the placebo-treated Fbn1C1039G/+ mice (P<0.0001, FIG. 21I).

Question: How did the Aortic dilatation ([1]; 10 months) turn out when CC(C)NCC(O)COc1cccc2ccccc12 (stereo not drawn) [propranolol] was run?
Answer: Its Aortic dilatation is “marked aortic dilatation”.

Question: What about the “Aortic wall architecture score” value ([1]; 10 months of treatment) of the same compound?
Answer: The value was “not influenced”.

Question: And the “Average aortic wall thickness” value ([1]; 10 months of treatment)?
Answer: The value was “indistinguishable from that in the placebo group”.

Question: What about the “Elastic fiber fragmentation / architecture (VVG staining)” value ([1]; drinking water, killed at 10 months) of the same compound?
Answer: Its value is “observed; also recorded: Marked elastic fiber disruption”.

Question: What about the “Elastic matrix architecture / histologic parameters of the aorta” value [2] of the same compound?
Answer: The value was “did not improve”.

Question: And the “Aortic growth during the 4 months of treatment” value ([3]; C1039G/+ mice from 7 weeks of age, losartan 50 mg/kg or propranolol 40 mg/kg, aortic root, echo, placebo 0.44±0.09)?
Answer: The value was 0.22±0.06 mm.

Question: What about the “Improvement in any parameter” value ([3]; propranolol dose with the same antihypertensive effect as losartan) of the same compound?
Answer: The value was “little improvement”.

Question: What about the “Aortic wall / elastic fiber architecture” value ([4]; 6 months of treatment) of the same compound?
Answer: The value was “no discernable effect”.

Question: What about the Aortic wall thickness ([4]; 6 months of treatment) of the same compound?
Answer: The Aortic wall thickness was “no discernable effect”.

Question: And the “Aortic root growth rate” value ([4]; during 6 months of treatment)?
Answer: The value was “slower rate of aortic root growth than did placebo-treated animals; also recorded: less than that with placebo, yet remains greater than that seen in wild-type mice”.

Question: What about the “TGF-β signaling in aortic media (nuclear pSmad2)” value ([4]; from 7 weeks of age, 6 months) of the same compound?
Answer: The value was “Marked increase in nuclear staining for pSmad2”.

Question: And the “Elastic fiber fragmentation (VVG staining)” value ([4]; from 7 weeks of age, 6 months, drinking water)?
Answer: The value was “diffuse fragmentation of elastic fibers”.
